Measured values published in the supplement of paper PMC10307832.

How the values were obtained:
Assay in all cases: relative viability (nuclei count vs DMSO), 5 days (fraction); higher = more cells survive
Sulindac + Luminespib = compound: CC1=C(CC(=O)O)c2cc(F)ccc2/C1=C\c1ccc([S+](C)[O-])cc1 [Sulindac] + CCNC(=O)c1noc(-c2cc(C(C)C)c(O)cc2O)c1-c1ccc(CN2CCOCC2)cc1 [Luminespib] (partner 0.01 µM)
Summary of the method: (§1)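 After 5 days of treatment, lung cancer cells in 1536-well plates were fixed and stained in a single step (final 0.05% Triton X-100, 1% formaldehyde, 1 ug/ml Hoechst) and their nuclei counted on 4× images. Treatment had been applied by pin tool the day after seeding as one drug alone or as a fixed anchor-drug dose with five library-drug doses (not always all listed) in √10 steps. Relative viability is the nuclei count of treated wells divided by that of vehicle wells, and values are medians of duplicate plates.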

[1] = compound: CN[C@@H]1C[C@H]2O[C@@](C)([C@@H]1OC)n1c3ccccc3c3c4c(c5c6ccccc6n2c5c31)C(=O)NC4 [Staurosporine] + Cc1cc(Nc2cc(N3CCN(C)CC3)nc(Sc3ccc(NC(=O)C4CC4)cc3)n2)n[nH]1 [Tozasertib] (partner 0.1 µM)
Summary of the method: as §1

[2] = compound: CN[C@@H]1C[C@H]2O[C@@](C)([C@@H]1OC)n1c3ccccc3c3c4c(c5c6ccccc6n2c5c31)C(=O)NC4 [Staurosporine] + N=C(N)NC(=N)NCCc1ccccc1 [Phenformin] (partner 250 µM)
Summary of the method: as §1

Staurosporine + AZD7762 = compound: CN[C@@H]1C[C@H]2O[C@@](C)([C@@H]1OC)n1c3ccccc3c3c4c(c5c6ccccc6n2c5c31)C(=O)NC4 [Staurosporine] + NC(=O)Nc1cc(-c2cccc(F)c2)sc1C(=O)N[C@H]1CCCNC1 [AZD7762] (partner 0.2 µM)
Summary of the method: as §1

Row | Cell Line | relative viability (Sulindac + Luminespib; first compound 0.08 µM) | relative viability (Sulindac + Luminespib; first compound 0.253 µM) | relative viability (Sulindac + Luminespib; first compound 0.8 µM) | relative viability (Sulindac + Luminespib; first compound 2.53 µM) | relative viability (Sulindac + Luminespib; first compound 8 µM) | relative viability ([1]; first compound 0.005 µM) | relative viability ([1]; first compound 0.01581 µM) | relative viability ([1]; first compound 0.05 µM) | relative viability ([1]; first compound 0.1581 µM) | relative viability ([1]; first compound 0.5 µM) | relative viability ([2]; first compound 0.005 µM) | relative viability ([2]; first compound 0.01581 µM) | relative viability ([2]; first compound 0.05 µM) | relative viability ([2]; first compound 0.1581 µM) | relative viability ([2]; first compound 0.5 µM) | relative viability (Staurosporine + AZD7762; first compound 0.005 µM) | relative viability (Staurosporine + AZD7762; first compound 0.01581 µM) | relative viability (Staurosporine + AZD7762; first compound 0.05 µM) | relative viability (Staurosporine + AZD7762; first compound 0.1581 µM) | relative viability (Staurosporine + AZD7762; first compound 0.5 µM)
1 | EKVX | 0.755 | 0.792 | 0.768 | 0.887 | 0.897 | 0.346 | 0.213 | 0.17 | 0.165 | 0.134 | 0.172 | 0.119 | 0.159 | 0.142 | 0.118 | 0.239 | 0.119 | 0.286 | 0.321 | –
2 | EMC-BAC-2 | 1.04 | 1.23 | 0.802 | 1.23 | 1.22 | 0.181 | 0.138 | 0.19 | 0.192 | 0.181 | 0.252 | 0.179 | 0.17 | 0.189 | 0.164 | 0.352 | 0.215 | 0.203 | 0.262 | 0.192
3 | EPLC-272H | 0.211 | 0.167 | – | 0.262 | 0.255 | 0.381 | 0.17 | 0.147 | 0.104 | 0.108 | 0.22 | 0.0782 | 0.0721 | 0.0546 | 0.0603 | 0.235 | 0.145 | 0.111 | 0.0612 | 0.0657
4 | H3255 | 0.85 | 0.958 | 0.847 | 0.954 | 1.05 | 0.504 | 0.337 | 0.203 | 0.239 | 0.145 | 0.326 | 0.28 | 0.249 | 0.181 | 0.14 | 0.658 | 0.474 | 0.324 | 0.204 | 0.126
5 | HARA | 0.731 | 1 | 0.77 | 0.671 | 0.963 | 0.102 | – | 0.0638 | 0.0719 | 0.0716 | 0.374 | – | 0.211 | 0.133 | 0.0495 | 0.278 | 0.169 | 0.262 | – | 0.029
6 | HCC-15 | 0.588 | 0.351 | 0.304 | 0.431 | 0.389 | 0.379 | – | 0.166 | 0.0982 | 0.0697 | 0.344 | – | 0.19 | 0.112 | 0.0964 | 1.28 | – | 1.22 | 0.736 | 0.302
7 | HCC-44 | 0.969 | 1.08 | – | 1.05 | 1.25 | 0.426 | 0.136 | 0.168 | 0.135 | 0.112 | 0.104 | 0.0863 | 0.0757 | 0.0829 | 0.0953 | 0.999 | – | 0.911 | 0.565 | 0.307
8 | HCC-78 | – | – | – | – | – | 0.545 | 0.287 | 0.424 | 0.429 | 0.258 | 0.639 | 0.45 | 0.486 | 0.376 | 0.287 | 0.674 | 0.463 | 0.438 | 0.375 | 0.326
9 | HCC-366 | – | – | – | – | – | 0.144 | – | 0.0425 | 0.0279 | 0.0464 | 0.708 | – | 0.519 | 0.283 | 0.0201 | 0.255 | – | 0.165 | 0.0217 | 0.0248
